Tested on: Human umbilical vein endothelial cells
Experiment: HUVEC culture 72 hours, fast green staining, image analysis count of NSD and MCAD cells
Conditions: for number of cells per field exhibiting MCAD: vehicle alone approximately 10; for number of cells showing non-specific cell death (NSD): vehicle alone approximately 125
Method: After 72 hours, the cells were stained with fast green and sedimented on microscope slides with a Cytospin™ centrifuge. Endothelial cells with non-specific death (NSD) stain pale blue green and endothelial cells with specific, massive-calcium accumulation death (MCAD) stain densely refractile hyperchromatic blue-black. The number of each type of cell was quantified using image analysis software.

Compound | number of cells per field exhibiting MCAD [cells per field] | number of cells showing non-specific cell death (NSD)
COc1cccc2c1C(=O)c1c(O)c3c(c(O)c1C2=O)C[C@@](O)(C(=O)CO)C[C@@H]3O[C@H]1C[C@H](N)[C@H](O)[C@H](C)O1 [doxorubicin] | 4 | 160 cells per field
bevacizumab [Avastin ®] | 35 | about 100 cells per field
